Measurements from PMC8341974 (RSC Chemical Biology, 2021).

Tests used:
SIRT2 [1] = target: T1, SIRT2 (Homo sapiens, UniProt Q8IXJ6); experiment: biochemical; type: biochemical; conditions: for %inhibition SIRT2, QPKKac: 100 µM inhibitor, QPKKac 50 µM, NI = no inhibition
T1 sequence (Q8IXJ6 50-356): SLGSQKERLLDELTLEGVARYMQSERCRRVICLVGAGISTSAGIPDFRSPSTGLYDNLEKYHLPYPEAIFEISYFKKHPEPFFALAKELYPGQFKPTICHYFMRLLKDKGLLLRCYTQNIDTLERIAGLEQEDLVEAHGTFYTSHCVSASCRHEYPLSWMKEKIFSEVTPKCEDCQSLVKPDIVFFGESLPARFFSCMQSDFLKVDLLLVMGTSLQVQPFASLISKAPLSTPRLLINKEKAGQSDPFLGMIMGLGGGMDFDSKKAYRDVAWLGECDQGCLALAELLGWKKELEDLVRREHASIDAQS

SIRT2 [2] = target: T1, SIRT2; experiment: Continuous trypsin-coupled SIRT2 inhibition assay; type: biochemical; conditions: from dependence of kobs on inhibitor concentration
SIRT1 = target: T2, SIRT1 (Homo sapiens, UniProt Q96EB6); experiment: End-point SIRT1 deacetylation inhibition assay; type: biochemical
T2 sequence (Q96EB6 193-741): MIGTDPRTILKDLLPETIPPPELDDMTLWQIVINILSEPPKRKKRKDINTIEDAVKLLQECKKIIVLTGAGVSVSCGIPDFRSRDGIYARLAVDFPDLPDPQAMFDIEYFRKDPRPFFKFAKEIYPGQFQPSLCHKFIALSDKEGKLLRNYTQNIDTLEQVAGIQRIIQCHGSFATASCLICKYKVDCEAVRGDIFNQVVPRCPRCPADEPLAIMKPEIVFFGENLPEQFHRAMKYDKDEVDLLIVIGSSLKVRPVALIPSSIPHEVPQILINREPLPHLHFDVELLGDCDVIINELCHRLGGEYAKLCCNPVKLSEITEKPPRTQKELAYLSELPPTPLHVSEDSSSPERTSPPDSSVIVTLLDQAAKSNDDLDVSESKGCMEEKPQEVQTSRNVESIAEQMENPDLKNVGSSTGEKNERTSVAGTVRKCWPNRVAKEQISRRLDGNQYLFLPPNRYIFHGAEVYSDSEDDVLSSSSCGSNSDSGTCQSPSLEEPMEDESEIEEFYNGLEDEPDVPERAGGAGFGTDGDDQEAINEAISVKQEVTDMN

[3] = Serum stability in human male serum; type: in vitro ADME; conditions: 37 °C, up to 24 h
SIRT6 = SIRT6 (Homo sapiens, UniProt Q8N6T7); experiment: End-point SIRT6 inhibition assay; type: biochemical; conditions: 10 µM inhibitor; SIRT6 600 nM; ETDKmyr 50 µM as substrate; NI = no inhibition
SIRT3 = target: T3, SIRT3 (Homo sapiens, UniProt Q9NTG7); experiment: biochemical; type: biochemical
T3 sequence (Q9NTG7 102-399): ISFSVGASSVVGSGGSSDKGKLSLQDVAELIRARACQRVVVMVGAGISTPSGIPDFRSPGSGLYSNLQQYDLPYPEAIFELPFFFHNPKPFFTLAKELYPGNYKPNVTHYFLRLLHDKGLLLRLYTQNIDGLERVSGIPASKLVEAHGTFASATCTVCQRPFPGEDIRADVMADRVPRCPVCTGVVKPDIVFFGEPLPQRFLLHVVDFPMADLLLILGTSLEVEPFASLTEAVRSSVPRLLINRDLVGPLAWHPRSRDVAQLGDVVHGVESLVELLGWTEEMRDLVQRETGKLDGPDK

[4] = test system: acetylated α-tubulin in MCF-7 cells; experiment: Immunofluorescence of acetylated α-tubulin in MCF-7 cells; type: cell-based, human; conditions: MCF-7, 6 h; 26 5 μM, 26-D 25 μM, TSA 5 μM

SIRT6, sequence (Q8N6T7 whole entry): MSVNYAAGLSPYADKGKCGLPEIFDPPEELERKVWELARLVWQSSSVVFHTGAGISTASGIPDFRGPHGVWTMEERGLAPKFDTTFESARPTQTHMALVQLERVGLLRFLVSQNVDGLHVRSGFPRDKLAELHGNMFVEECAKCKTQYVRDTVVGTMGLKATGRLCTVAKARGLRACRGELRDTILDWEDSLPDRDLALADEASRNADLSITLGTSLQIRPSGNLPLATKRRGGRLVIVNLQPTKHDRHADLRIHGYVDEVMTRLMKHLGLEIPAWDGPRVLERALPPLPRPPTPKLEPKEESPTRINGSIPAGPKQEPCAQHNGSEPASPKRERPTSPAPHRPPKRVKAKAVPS

CCCCCCCCCCCCCC(=O)NNCCC[C@H](NC(=O)OCc1ccccc1)C(=O)N[C@@H](Cc1c[nH]c2ccccc12)C(=O)NC(C)C [Compound 4]
%inhibition SIRT2, QPKKac (SIRT2 [1]): only limited inhibition

CCCCCCCCCCCCNC(=O)CCCCC[C@H](NC(=O)OCc1ccccc1)C(=O)N[C@@H](Cc1c[nH]c2ccccc12)C(=O)NC(C)C [Compound 5]
%inhibition SIRT2, QPKKac (SIRT2 [1]): only limited inhibition

CCCCCCCCCCCCNC(=S)NCCCC[C@H](NS(C)(=O)=O)C(=O)N[C@@H](C)C(=O)N[C@@H](CCCNC(=N)N)C(N)=O [Compound 25]
mechanism of slow-binding inhibition (SIRT2 [2]): mechanism B
IC50 (SIRT1): 370 ± 70 nM
degradation in human serum (in words) [3]: almost fully degraded in less than two hours
%-inhibition SIRT6 (SIRT6): did not inhibit
IC50 (SIRT2 [1]; IC50 SIRT2, QPKKac, given as class word, QPKKac 50 μM, NAD+ 500 μM, SIRT2 100 nM): < 100 nM
IC50 (SIRT3): 1900 ± 300 nM

CC(/C=C/C(=O)NO)=C\[C@@H](C)C(=O)c1ccc(N(C)C)cc1 [TSA, Trichostatin A]
acetylated α-tubulin level by immunofluorescence (in words) [4]: hyperacetylation of α-tubulin throughout the entire cell

CN(C)CCCCC(=O)Nc1ccc(NC(=S)NC(=O)c2ccc(C(C)(C)C)cc2)cc1 [Tenovin-6, reference compound]
degradation in human serum (in words) [3]: rapidly degraded
%inhibition SIRT3, QPKKac (SIRT3; 100 µM inhibitor, QPKKac 50 µM, NI = no inhibition): <50% [100 μM]
